This is an account of results in article PMC4583543, “Development and Validation of a Novel Leishmania donovani Screening Cascade for High-Throughput Screening Using a Novel Axenic Assay with High Predictivity of Leishmanicidal Intracellular Activity” (PLoS Neglected Tropical Diseases, 2015).

SMILES strings stand for the structures. Read-outs that look alike come from different tables or passages of the source.

The test system of series [1] is eGFP expressing LdBOB amastigote-like cells in PMA differentiated THP-1 cells. Nature of the series: Intramacrophage (intracellular, INMAC) assay. The format is cell-based, Leishmania donovani. Conditions: for EC50: Leishmania donovani, THP-1, 96 h, read-out: Intramacrophage (potency, pEC50) (converted). As to the method:
(§1) Compounds were dispensed into 384-well assay plates by acoustic dispensing (LabCyte ECHO). […] Potencies are reported as pEC50 (-LOG(EC50[M])).
(§2) All data was processed using IDBS ActivityBase. […] Potency plates were normalised to DMSO control (0% effect) and 2μM amphotericin B control (100% effect). […] For compounds with low activity and poor definition of the curve top, B was fixed to 100. For the determination of the reference compound panel potency, all experiments were carried out with a minimum of three independent repeats.
(§3) The assay conditions are described previously. Briefly PMA differentiated THP-1 cells were infected overnight with eGFP expressing LdBOB amastigote-like cells at a multiplicity of infection of 5. Next, any remaining free amastigote-like cells are removed and compounds are added. The microscopy-based read-out is done after a four day compound incubation.

In a further series the test system is THP-1 cells. The series is described as follows: THP-1 host cell toxicity in the intramacrophage assay. The series is classed as cell-based, human. As to conditions: Homo sapiens. As to the method:
as §1, §2, §3

Series [2] has as its system LdBOB axenic amastigote-like cells. The series is described as follows: Novel (cidal) axenic amastigote assay, BacTiter-Glo read-out. The format is cell-based, Leishmania donovani. The source says: Leishmania donovani BOB cells (LdBOB) used in this study are a cloned line from strain MHOM/SD/62/1S-CL2 [13]. Cultures were maintained as described previously. Compounds were dispensed into 384-well assay plates by acoustic dispensing (LabCyte ECHO). […] Potencies are reported as pEC50 (-LOG(EC50[M])). All data was processed using IDBS ActivityBase. […] For compounds with low activity and poor definition of the curve top, B was fixed to 100. For the determination of the reference compound panel potency, all experiments were carried out with a minimum of three independent repeats. Test compounds were pre-dispensed into white 384 well plates (Corning). For library screens one compound per well was tested at the indicated final concentration. […] DMSO, zero percent effect control: cells at starting concentration. The zero percent effect control wells are left empty during the course of the assay. […] The assay volume is 25 μl / well. […] Plates were then sealed with clear film and relative luminescence was detected using a plate reader (Victor 3) from Perkin Elmer or PHERAstar FS from BMG LABTECH, with 0.5 s detection time per well).

For another series, the system named is HepG2 cells. Nature of the series: HepG2 assay (mammalian counterscreen, resazurin). The format is cell-based, human. Conditions: Homo sapiens, read-out: HepG2 (potency, pEC50) (converted). As for the experimental part:
Compounds were dispensed into 384-well assay plates by acoustic dispensing (LabCyte ECHO). […] Potencies are reported as pEC50 (-LOG(EC50[M])). All data was processed using IDBS ActivityBase. […] For compounds with low activity and poor definition of the curve top, B was fixed to 100. For the determination of the reference compound panel potency, all experiments were carried out with a minimum of three independent repeats. The assay conditions are described previously.

The conditions of series [3]: cited from earlier work.
On the set-up of series [4]: method as in PMID 197231. Conditions: cited from earlier work.
Setting [5] is: reference compound panel, mean (standard deviation), minimum three independent repeats, four day incubation.
Where [6] appears, read: THP-1, reference compound panel, mean (standard deviation), host cell toxicity, read-out: THP-1 (potency, pEC50) (converted).
Where [7] appears, read: Leishmania donovani; read-out: Novel (axenic assay potency, pEC50) (converted).
Where [8] appears, read: HepG2, reference compound panel, mean (standard deviation), 72 h.

Regarding `CC(C)(C)NC(=O)[C@@H]1CN(Cc2cccnc2)CCN1C[C@@H](O)C[C@@H](Cc1ccccc1)C(=O)N[C@H]1c2ccccc2C[C@H]1O` [Indinavir], the EC50 is more than 34.7 µM in series [1] (setting [5]), more than 34.7 µM in the series with THP-1 cells (setting [6]), more than 50.1 µM in series [2] (setting [7]) and more than 50.1 µM in the series on HepG2 cells (setting [8]).
On to `OC(c1ccc(Cl)cc1)(c1cncnc1)c1ccccc1Cl` (stereo not drawn) [Fenarimol], for which the EC50 was more than 34.7 µM in series [1] (setting [5]), more than 34.7 µM in the series on THP-1 cells (setting [6]), more than 50.1 µM in series [2] (setting [7]) and more than 50.1 µM with HepG2 cells (setting [8]).
On to `OC(c1cc(C(F)(F)F)nc2c(C(F)(F)F)cccc12)C1CCCCN1` (stereo not drawn) [Mefloquine], for which the EC50 was 8.51 µM in series [1] (setting [5]), 12 µM with THP-1 cells (setting [6]), more than 50.1 µM in series [2] (setting [7]) and 9.77 µM in the series with HepG2 cells (setting [8]). Also, in series [1] (reference compound panel), the “activity in words (intracellular versus novel axenic)” value is “only active in the intracellular assay”.
In the case of `CC(C)Cn1cnc2c(N)nc3ccccc3c21` [Imiquimod], the EC50 in series [1] is more than 34.7 µM; in the series with THP-1 cells (setting [6]), more than 34.7 µM; in series [2] (setting [7]), more than 50.1 µM; in the series on HepG2 cells (setting [8]), more than 50.1 µM.
As to `Cn1c([N+](=O)[O-])cnc1COc1ccc(S(C)(=O)=O)cc1` [Fexinidazole sulfone], the EC50 in series [1] (setting [5]) was 32.4 µM; with THP-1 cells (setting [6]), more than 34.7 µM; in series [2] (setting [7]), 7.76 µM; in the series with HepG2 cells (setting [8]), more than 50.1 µM.
`C[C@@]12C(=O)OC(=O)[C@]1(C)[C@H]1CC[C@@H]2O1` [Cantharidin]: the EC50 in series [1] is 13.2 µM; in the series on THP-1 cells (THP-1, read-out: THP-1 (potency, pEC50) (converted)) it was 2.75 µM; in series [2] (Leishmania donovani, read-out: Novel (axenic assay potency, pEC50) (converted)) it was 4.37 µM; in the series with HepG2 cells (HepG2, 72 h), 1.35 µM.
Take `CSc1ccc(OCc2ncc([N+](=O)[O-])n2C)cc1` [Fexinidazole]: the EC50 in series [1] (setting [5]) is more than 34.7 µM; with THP-1 cells (setting [6]), more than 34.7 µM; in series [2] (setting [7]), 11.5 µM; with HepG2 cells (setting [8]) it was more than 50.1 µM.
Take `CC[C@@H]([C@H](C)O)n1ncn(-c2ccc(N3CCN(c4ccc(OC[C@@H]5CO[C@@](Cn6cncn6)(c6ccc(F)cc6F)C5)cc4)CC3)cc2)c1=O` [Posaconazole]: the EC50 is 18.6 µM in series [1] (setting [5]), 17.8 µM in the series with THP-1 cells (setting [6]), 36.3 µM in series [2] (setting [7]) and 8.51 µM in the series with HepG2 cells (setting [8]).
Turning to `C[C@@H]1[C@H](O)[C@@H](C)/C=C/C=C/C=C/C=C/C=C/C=C/C=C/[C@H](O[C@@H]2O[C@H](C)[C@@H](O)[C@H](N)[C@@H]2O)C[C@@H]2O[C@](O)(C[C@@H](O)C[C@@H](O)[C@H](O)CC[C@@H](O)C[C@@H](O)CC(=O)O[C@H]1C)C[C@H](O)[C@H]2C(=O)O` [Amphotericin B], the EC50 in series [1] (setting [5]) was 0.24 µM; with THP-1 cells (setting [6]), 26.9 µM; in series [2] (Leishmania donovani; control on each plate, run to run over extended time period; ± StDev; read-out: average pEC50 of plate control (converted)) it was 0.126 µM; in series [2] (setting [7]), 0.302 µM; with HepG2 cells (setting [8]), more than 50.1 µM.
Consider `CC1CS(=O)(=O)CCN1/N=C/c1ccc([N+](=O)[O-])o1` (stereo not drawn) [Nifurtimox], for which the EC50 in series [1] (setting [5]) is more than 34.7 µM; in the series on THP-1 cells (setting [6]), more than 34.7 µM; in series [2] (setting [7]) it was 11.2 µM; in the series with HepG2 cells (setting [8]) it was more than 50.1 µM.
`CCN(CC)C(=S)SSC(=S)N(CC)CC` [Disulfiram]: the EC50 in series [1] (setting [5]) is more than 34.7 µM; in the series on THP-1 cells (setting [6]), more than 34.7 µM; in series [2] (setting [7]), 0.363 µM; with HepG2 cells (setting [8]), 45.7 µM. Also, the aqueous solubility entry in series [3] was “poor”. The “activity in words (novel axenic versus intracellular)” value in series [2] (reference compound panel) is “only active in the novel axenic assay”. Also, the stability in serum result in series [4] is “unstable in serum”.
In the case of `CCN(CC)Cc1cc(Nc2ccnc3cc(Cl)ccc23)ccc1O` [Amodiaquine], the EC50 in series [1] (setting [5]) was 4.07 µM; in the series with THP-1 cells (setting [6]) it was 29.5 µM; in series [2] (setting [7]), more than 50.1 µM; in the series on HepG2 cells (setting [8]) it was 25.7 µM. Also, in series [1] (reference compound panel), the “activity in words (intracellular versus novel axenic)” value is listed as “only active in the intracellular assay”.
